The IC50 is the concentration that inhibits the measured activity by half.

A value given as a limit tells only on which side of the number the result lay.

In one test the target is Human recombinant PARP2 (Homo sapiens, UniProt Q9UGN5). As to the kind of experiment: RBC HotSpot PARP2 radioisotope-based filter binding assay. Format: biochemical. The conditions noted are these: 2.5 nM enzyme, histone H3, 10 μM 32P-NAD+; read-out: PARP2 IC50. The method, then: (§1) The following methods are for evaluating the in vitro biology properties of the test articles. • a. RBC HotSpot Poly(ADP-ribose) Polymerases 1 (PARP1) and Poly(ADP-ribose) Polymerases 2 (PARP2) Assays: The assay principle is radioisotope-based filter binding assay where incorporation of radioisotope-labeled NAD^+ into the substrate captured on filter is detected after washout free NAD^+. Data were analyzed using Excel and GraphPad Prism software for IC50 curve fits. Each assay was conducted with PJ34 as a positive control. • i. PARP1 assay: Human recombinant PARP1 at a final concentration of 2.5 nM was combined with histone H4 (20 μM) and test articles at various concentrations in reaction buffer (50 mM Tris-HCL, pH 8.0, 50 mM NaCl, 10 mM MgCl2, 1 mM DTT, 1% DMSO, and 20 μg/mL activated DNA). The solution was inoculated for 20 min at room temperature and the reaction initiated by adding [adenylate-^32P]-Nicotinamide Adenine Dinucleotide, ^32P-NAD^+ at a final concentration of 10 μM. After incubation for 2 hour at room temperature, the reaction mixture was filtered and washed with 0.75% phosphoric acid for radioactivity detection. • ii. PARP2 assay: Human recombinant PARP2 at a final concentration of 2.5 nM was combined with histone H3 (20 μM) and test articles at various concentrations in reaction buffer (50 mM Tris-HCL, pH 8.0, 50 mM NaCl, 10 mM MgCl2, 1 mM DTT, 1% DMSO, and 20 μg/mL activated DNA). The solution was inoculated for 20 min at room temperature and the reaction was initiated by adding [adenylate-^32P]-Nicotinamide Adenine Dinucleotide, ^32P-NAD^+ at a final concentration of 10 μM. After incubation for 2 hour at room temperature, the reaction mixture was filtered and washed with 0.75% phosphoric acid for radioactivity detection. • b. AR binding assay: AR in LNCaP cytosol was used for determining the binding affinity of test articles and the reference compound—progesterone (Sigma, Cat: E2785, St. Louis, MO). IC50s were determined using 8 concentrations/compound. Cytosol was plated at 200 μg/well (100 μL) into a 96-well conical polypropylene plate (Agilent, Cat: 5042-1385, Santa Clara, CA) and mixed with 3 μL of test compound. After adding 100 μL of ^3H-methyltrienolone (PerkinElmer, Cat: NET590250UC, San Jose, CA), the plate was sealed and shaken at 300 rpm at 4° C. for 24 hours. Post incubation, 100 μL of radioligand adsorption buffer containing 10 mM Tris-HCl, pH 7.4; 1.5 mM EDTA; 1 mM DTT; 0.25% charcoal; 0.0025% dextran was added to individual well. Plate was shaken for 15 min at 4′C followed by centrifugation at 3000 rpm for 30 min at 4° C. 150 μL of supernatant was transferred into scint-tube (PerkinElmer, Cat: 6000192) and mixed with 2 mL of Ultima Gold Cocktail (PerkinElmer, Cat: 6013329). Radioactivity was counted using a TriCarb 2910 TR scintillation counter (PerkinElmer). Inhibition of the radioactivity by test articles were calculated using the equation below: % Inhibition=(1−(Assay well−Average_LC)/(Average_HC−Average_LC))×100%.
Sequence of Human recombinant PARP2 (Q9UGN5 whole entry): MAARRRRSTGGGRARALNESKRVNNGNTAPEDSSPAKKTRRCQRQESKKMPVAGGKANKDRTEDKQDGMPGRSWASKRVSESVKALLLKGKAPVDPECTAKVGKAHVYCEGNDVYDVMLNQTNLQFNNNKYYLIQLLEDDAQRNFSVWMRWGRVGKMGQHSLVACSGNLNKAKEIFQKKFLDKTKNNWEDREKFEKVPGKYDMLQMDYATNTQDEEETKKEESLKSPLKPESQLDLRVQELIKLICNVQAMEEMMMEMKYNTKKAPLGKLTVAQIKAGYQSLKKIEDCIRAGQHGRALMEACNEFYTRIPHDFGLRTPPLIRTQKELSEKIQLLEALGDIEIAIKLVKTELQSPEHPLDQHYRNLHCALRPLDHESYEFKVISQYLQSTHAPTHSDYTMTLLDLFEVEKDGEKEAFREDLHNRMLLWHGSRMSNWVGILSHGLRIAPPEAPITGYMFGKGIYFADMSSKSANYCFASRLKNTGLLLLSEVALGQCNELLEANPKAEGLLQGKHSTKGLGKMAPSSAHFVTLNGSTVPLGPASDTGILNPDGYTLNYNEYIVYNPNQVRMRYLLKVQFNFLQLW

For another test, the target named is Human recombinant PARP1 (Homo sapiens, UniProt P09874). In words: RBC HotSpot PARP1 radioisotope-based filter binding assay. The settings on record: 2.5 nM enzyme, histone H4, 10 μM 32P-NAD+; read-out: PARP1 IC50. Format: biochemical. The method, then: as §1
Sequence of Human recombinant PARP1 (P09874 whole entry): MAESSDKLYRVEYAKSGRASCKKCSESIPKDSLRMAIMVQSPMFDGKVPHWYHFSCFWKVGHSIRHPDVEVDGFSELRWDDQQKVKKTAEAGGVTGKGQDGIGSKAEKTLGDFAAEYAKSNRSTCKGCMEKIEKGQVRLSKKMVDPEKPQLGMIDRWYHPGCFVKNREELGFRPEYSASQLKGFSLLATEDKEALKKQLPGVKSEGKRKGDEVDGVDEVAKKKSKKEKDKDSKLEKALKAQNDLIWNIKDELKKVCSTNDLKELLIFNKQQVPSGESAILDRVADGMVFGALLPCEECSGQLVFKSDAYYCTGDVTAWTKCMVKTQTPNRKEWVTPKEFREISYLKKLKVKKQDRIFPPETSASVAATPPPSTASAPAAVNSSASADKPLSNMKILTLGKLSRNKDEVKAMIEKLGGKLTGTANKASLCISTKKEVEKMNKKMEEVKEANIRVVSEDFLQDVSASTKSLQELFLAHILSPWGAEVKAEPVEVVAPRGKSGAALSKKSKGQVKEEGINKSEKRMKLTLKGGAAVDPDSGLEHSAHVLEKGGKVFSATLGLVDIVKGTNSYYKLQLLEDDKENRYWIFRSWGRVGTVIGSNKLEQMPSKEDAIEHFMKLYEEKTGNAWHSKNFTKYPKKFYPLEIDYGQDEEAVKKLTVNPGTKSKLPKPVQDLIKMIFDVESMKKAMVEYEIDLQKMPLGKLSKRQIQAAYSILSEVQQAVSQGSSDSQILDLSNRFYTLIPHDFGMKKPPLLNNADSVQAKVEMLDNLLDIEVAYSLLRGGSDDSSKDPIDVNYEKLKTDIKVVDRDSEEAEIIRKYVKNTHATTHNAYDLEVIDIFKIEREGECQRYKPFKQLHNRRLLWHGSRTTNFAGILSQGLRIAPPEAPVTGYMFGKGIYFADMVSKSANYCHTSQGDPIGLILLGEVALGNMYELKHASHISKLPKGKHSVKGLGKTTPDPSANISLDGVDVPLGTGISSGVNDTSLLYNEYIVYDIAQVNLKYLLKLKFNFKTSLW
For a further test, the system named is PC-3 cells. As to the kind of experiment: Cell proliferation assay (CellTiter Glo), PC-3. Format: cell-based. The settings on record: Homo sapiens, PC-3, 168 h; cell growth inhibition, six or seven days total treatment; read-out: PC-3 IC50. The method, then: (§2) IC50 values were calculated and graphed using the model “log(inhibitor) vs. response—Variable slope” included in GraphPad Prism 5 (San Diego, CA). The Ki values were further calculated using the equation below where [L] was the radioligand concentration (1 nM) using in this study. Kd value was 0.332 nM. Ki=IC50/(1+[L]/Kd) c. AR transactivation: Human AR cloned into a CMV vector backbone was used for the transactivation study. HEK-293 cells were plated at 80,000 cells per well of a 24 well plate in DME+5% csFBS. Twenty four hours later, the cells were transfected using Lipofectamine (Invitrogen, Carlsbad, CA) with 0.25 μg GRE-LUC, 0.01 μg CMV-LUC (renilla luciferase) and 25 ng of the AR in OPTIMEM medium. The cells were treated 24 hrs after transfection with various ligands (10^−12 to 10^−5 M final concentrations) and luciferase assay were performed 48 hours after transfection. Firefly values were normalized to renilla luciferase values and the values were represented as relative light units (RLU). Agonist and antagonist assays for the test article were performed in the absence and in the combination with 0.1 nM R1881, respectively. Data were represented as EC50 (for agonists) and IC50 (for antagonists) obtained from four parameter logistics curve. Cell culture and proliferation assays: LNCaP, PC-3, 22RV1, MCF-7, HT-29, and HCT-116 cells were procured from American Type Culture Collection (ATCC). Cells were cultured in medium recommended by the ATCC. Cell culture medium was obtained from Fisher scientific (Waltham, MA) and serum was obtained from Hyclone (San Angelo, TX).
(§3) Cells were plated at varying density in the respective growth medium in 96 well plates. 24 hr later, cells were treated, in triplicate or quadruplicate, with test articles prepared in a range of concentrations by series dilution of DMSO stock solutions in growth medium and incubated for three to seven days. The number of viable 22RV1 and HT-29 cells was measured using CellTiter Glo assay (CTG, Promega, Madison, WI) after three days of treatment. The other types of cancer cells were re-treated at three or four days and the number of viable cells was measured using CTG assay after a total treatment time of six or seven days. Cell viability data were plotted using GraphPad Prism (GraphPad Software, Inc., San Diego, CA). In addition, a nonlinear regression model with a sigmoidal dose response and variable slope within GraphPad Prism was used to calculate the IC50 value of individual test articles. Additional cell proliferation assays: Other cancer cell lines are tested in a cell proliferation assay. For example, SK-OV-3 or OVCAR3 ovarian cancer cells are tested. […] The number of viable cells is measured using CellTiter Glo assay (CTG, Promega, Madison, WI) or similar. […]
(In ATP-based viability assays light output follows the ATP content of the culture.)

A further test relates to HCT-116 cells. In words: Cell proliferation assay (CellTiter Glo), HCT-116. The settings on record: Homo sapiens, HCT-116, 168 h; cell growth inhibition, six or seven days total treatment; read-out: HCT-116 IC50. In kind it is cell-based. The method, then:
as §2, §3

Another test has as its system LNCaP cells. As to the kind of experiment: Cell proliferation assay (CellTiter Glo), LNCaP. In kind it is cell-based. The conditions noted are these: Homo sapiens, 168 h, cell growth inhibition, six or seven days total treatment, read-out: LNCaP IC50. The method, then:
as §2
Cells were plated at varying density in the respective growth medium in 96 well plates. 24 hr later, cells were treated, in triplicate or quadruplicate, with test articles prepared in a range of concentrations by series dilution of DMSO stock solutions in growth medium and incubated for three to seven days. The number of viable 22RV1 and HT-29 cells was measured using CellTiter Glo assay (CTG, Promega, Madison, WI) after three days of treatment. The other types of cancer cells were re-treated at three or four days and the number of viable cells was measured using CTG assay after a total treatment time of six or seven days. Cell viability data were plotted using GraphPad Prism (GraphPad Software, Inc., San Diego, CA). In addition, a nonlinear regression model with a sigmoidal dose response and variable slope within GraphPad Prism was used to calculate the IC50 value of individual test articles. Additional cell proliferation assays: Other cancer cell lines are tested in a cell proliferation assay. For example, SK-OV-3 or OVCAR3 ovarian cancer cells are tested. Cells are cultured in medium recommended by the supplier (e.g., ATCC or JCRB Cell Bank), at 37° C. in a 5% CO2 environment. For the proliferation assay, cells are plated in the growth medium in 96 well plates. Seeding density is adjusted according to the cell type. 24 hr later, cells are treated, in triplicate or quadruplicate, with test articles prepared in a range of concentrations by series dilution of DMSO stock solutions in growth medium, and typically incubated for three to seven days, with test article-containing medium replaced after three or four days. The number of viable cells is measured using CellTiter Glo assay (CTG, Promega, Madison, WI) or similar. Cell viability data are plotted using GraphPad Prism (GraphPad Software, Inc., San Diego, CA). […]

A further test concerns 22RV1 cells. In words: Cell proliferation assay (CellTiter Glo), 22RV1. Format: cell-based. The conditions noted are these: Homo sapiens, 22Rv1, 72 h; cell growth inhibition, three days of treatment; read-out: 22RV1 IC50. The procedure:
as §2
Cells were plated at varying density in the respective growth medium in 96 well plates. 24 hr later, cells were treated, in triplicate or quadruplicate, with test articles prepared in a range of concentrations by series dilution of DMSO stock solutions in growth medium and incubated for three to seven days. The number of viable 22RV1 and HT-29 cells was measured using CellTiter Glo assay (CTG, Promega, Madison, WI) after three days of treatment. The other types of cancer cells were re-treated at three or four days and the number of viable cells was measured using CTG assay after a total treatment time of six or seven days. Cell viability data were plotted using GraphPad Prism (GraphPad Software, Inc., San Diego, CA). In addition, a nonlinear regression model with a sigmoidal dose response and variable slope within GraphPad Prism was used to calculate the IC50 value of individual test articles. Additional cell proliferation assays: Other cancer cell lines are tested in a cell proliferation assay. For example, SK-OV-3 or OVCAR3 ovarian cancer cells are tested. Cells are cultured in medium recommended by the supplier (e.g., ATCC or JCRB Cell Bank), at 37° C. in a 5% CO2 environment. For the proliferation assay, cells are plated in the growth medium in 96 well plates. Seeding density is adjusted according to the cell type. 24 hr later, cells are treated, in triplicate or quadruplicate, with test articles prepared in a range of concentrations by series dilution of DMSO stock solutions in growth medium, and typically incubated for three to seven days, with test article-containing medium replaced after three or four days. The number of viable cells is measured using CellTiter Glo assay (CTG, Promega, Madison, WI) or similar. Cell viability data are plotted using GraphPad Prism (GraphPad Software, Inc., San Diego, CA). In addition, a nonlinear regression model with a sigmoidal dose response and variable slope within GraphPad Prism is used to calculate the IC50 value of individual test articles. Similarly, HEK-293 and HeLa calls can also be tested by methods known in the art. • f. Nuclear translocation: LNCaP cells are plated on coverslips in 24 well plates in growth medium. Twenty-four hours after plating, medium is changed to RPMI+1% csFBS and the cells are maintained in this medium for two days. Medium is replaced again and the cells are treated. […]

As for `C[C@]12CCCC[C@@H]1CC[C@@H]1[C@@H]2CC[C@]2(C)[C@@H](OCCCCCC(=O)N3CCN(C(=O)c4cc(Cc5n[nH]c(=O)c6ccccc56)ccc4F)CC3)CC[C@@H]12` [Compound 1.115], the results for the IC50 on Human recombinant PARP2 and on Human recombinant PARP1 were 1.5 nM and 25.7 nM, respectively.

For the compound `Cn1ncnc1[C@H]1c2n[nH]c(=O)c3cc(F)cc(c23)N[C@@H]1c1ccc(NC(=O)CCCCCNC(=O)c2ccc(N3C(=S)N(c4ccc(C#N)c(C(F)(F)F)c4)C(=O)C3(C)C)cc2F)cc1` [Compound 1.3, 4-(3-(4-cyano-3-(trifluoromethyl)phenyl)-5,5-dimethyl-4-oxo-2-thioxoimidazolidin-1-yl)-2-fluoro-N-(6-((4-((8S,9R)-5-fluoro-9-(1-methyl-1H-1,2,4-triazol-5-yl)-3-oxo-2,7,8,9-tetrahydro-3H-pyrido[4,3,2-de]phthalazin-8-yl)phenyl)amino)-6-oxohexyl)benzamide], the IC50 at Human recombinant PARP2 is 0.5 nM; at Human recombinant PARP1 it was 2 nM; in the test with PC-3 cells, 8800 nM; in the test on HCT-116 cells, > 30000 nM; in the test with LNCaP cells, 490 nM.

Turning to `C[C@](O)(CS(=O)(=O)c1ccc(OCCCCCCN2CCN(C(=O)c3cc(Cc4n[nH]c(=O)c5ccccc45)ccc3F)CC2)cc1)C(=O)Nc1ccc(C#N)c(C(F)(F)F)c1` [Compound 1.96, (R)-N-(4-cyano-3-(trifluoromethyl)phenyl)-3-(4-(6-(4-(2-fluoro-5-((4-oxo-3,4-dihydrophthalazin-1-yl)methyl)benzoyl)piperazin-1-yl)hexyloxy)phenylsulfonyl)-2-hydroxy-2-methylpropanamide], the values for the IC50 at Human recombinant PARP2 and at Human recombinant PARP1 were 0.5 nM and 6 nM, respectively.

Take `C[C@]12CC[C@@H]3c4ccc(O)cc4CC[C@H]3[C@@H]1CC[C@@H]2OCCCCCC(=O)N1CCN(C(=O)c2cc(Cc3n[nH]c(=O)c4ccccc34)ccc2F)CC1` [Compound 2.2, 4-(4-fluoro-3-(4-(6-((8R,9S,13S,14S,17S)-3-hydroxy-13-methyl-7,8,9,11,12,13,14,15,16,17-decahydro-6H-cyclopenta[a]phenanthren-17-yloxy)hexanoyl)piperazine-1-carbonyl)benzyl)phthalazin-1(2H)-one]: the IC50 in the test with 22RV1 cells worked out at 390 nM.

As for `Cn1ncnc1[C@H]1c2n[nH]c(=O)c3cc(F)cc(c23)N[C@@H]1c1ccc(NC(=O)CCCCCO[C@H]2CC[C@H]3[C@@H]4CC[C@H]5CC(=O)CC[C@]5(C)[C@H]4CC[C@]23C)cc1` [Compound 1.4, 6-(((5S,8R,9S,10S,13S,14S,17S)-10,13-dimethyl-3-oxohexadecahydro-1H-cyclopenta[a]phenanthren-17-yl)oxy)-N-(4-(5-fluoro-9-(1-methyl-1H-1,2,4-triazol-5-yl)-3-oxo-2,7,8,9-tetrahydro-3H-pyrido[4,3,2-de]phthalazin-8-yl)phenyl)hexanamide], the IC50 on Human recombinant PARP2 was 0.4 nM; at Human recombinant PARP1, 2 nM; in the test with PC-3 cells it was 20 nM; in the test with HCT-116 cells, 110 nM; in the test with LNCaP cells it was 90 nM.

Take `Cn1ncnc1[C@@H]1c2n[nH]c(=O)c3cc(F)cc(c23)N[C@H]1c1ccc(NC(=O)CCCCCNC(=O)c2ccc(N3C(=S)N(c4ccc(C#N)c(C(F)(F)F)c4)C(=O)C3(C)C)cc2F)cc1` [ent-1.3, 4-(3-(4-cyano-3-(trifluoromethyl)phenyl)-5,5-dimethyl-4-oxo-2-thioxoimidazolidin-1-yl)-2-fluoro-N-(6-((4-((8R,9S)-5-fluoro-9-(1-methyl-1H-1,2,4-triazol-5-yl)-3-oxo-2,7,8,9-tetrahydro-3H-pyrido[4,3,2-de]phthalazin-8-yl)phenyl)amino)-6-oxohexyl)benzamide]: the half-inhibitory concentration (IC50) at Human recombinant PARP2 is 16 nM; on Human recombinant PARP1, 79 nM; in the test on LNCaP cells, > 100000 nM.
